According to patent publication US20230085307A1, “PYRIDAZINONE COMPOUND AND HERBICIDE” (NISSAN CHEMICAL CORPORATION, priority 2019, published 2023):

Assays:
[1] = tested on: late watergrass; assay: Test Example 2: herbicidal activity, application during weed generation under submerged conditions (Table 17, symbol A); assay type: in vivo, late watergrass (Echinochloa oryzicola); conditions: AAH 320 g/ha; application during weed generation, submerged conditions
How it was run: (§1)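 Wagner pot, alluvial soil, 4 cm flood; mixed sowing of all species; greenhouse 25° C.–30° C. Emulsifiable formulation, water-diluted to predetermined dose, applied to paddy water at 1–2 leaf stage. Effect rated at 3 wk using the earlier test's scoring criteria.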

[2] = tested on: Japanese bulrush; assay: Test Example 2: herbicidal activity, application during weed generation under submerged conditions (Table 17, symbol B); assay type: in vivo, Japanese bulrush (Schoenoplectus juncoides); conditions: AAH 320 g/ha; application during weed generation, submerged conditions
How it was run: as §1

[3] = tested on: chickweed; assay: Test Example 4: herbicidal effect by soil treatment (Table 19, symbol P); assay type: in vivo, common chickweed (Stellaria media); conditions: amount of applied herbicide 320 g/ha
How it was run: (§2)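 Three weeks of greenhouse growth at 25° C. to 30° C. followed a uniform surface spray of water-diluted emulsion at a predetermined herbicide amount. Seeds had been sown beforehand under about 1.5 cm of sterilized diluvial soil. Grading followed criteria set out in an earlier test.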

[4] = tested on: wild oat; assay: Test Example 4: herbicidal effect by soil treatment (Table 19, symbol I); assay type: in vivo, wild oat (Avena fatua); conditions: amount of applied herbicide 320 g/ha
How it was run: as §2

[5] = tested on: persian speedwell; assay: Test Example 4: herbicidal effect by soil treatment (Table 19, symbol R); assay type: in vivo, Persian speedwell (Veronica persica); conditions: amount of applied herbicide 320 g/ha
How it was run: as §2

[6] = tested on: velvetleaf; assay: Test Example 4: herbicidal effect by soil treatment (Table 19, symbol M); assay type: in vivo, velvetleaf (Abutilon theophrasti); conditions: amount of applied herbicide 320 g/ha
How it was run: as §2

[7] = tested on: Chinese sprangletop; assay: Test Example 3: herbicidal effect by foliage application, Wagner pot (Table 18, symbol D); assay type: in vivo, chinese sprangletop (Leptochloa chinensis); conditions: amount of applied herbicide 320 g/ha
How it was run: (§3)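 Plants were sown in alluvial soil held under 0.1–0.5 cm standing water and grown 14 days in a greenhouse at 25–30 °C. An emulsifiable formulation, water-diluted to the set dose, was then sprayed onto the foliage, and effects were scored three weeks later using previously defined criteria.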

[8] = tested on: southern crabgrass; assay: Test Example 4: herbicidal effect by soil treatment (Table 19, symbol F); assay type: in vivo, southern crabgrass (Digitaria ciliaris); conditions: amount of applied herbicide 320 g/ha
How it was run: as §2

[9] = tested on: lambsquarters; assay: Test Example 4: herbicidal effect by soil treatment (Table 19, symbol O); assay type: in vivo, lambsquarters (Chenopodium album); conditions: amount of applied herbicide 320 g/ha
How it was run: as §2

[10] = tested on: oval-leafed pondweed; assay: Test Example 1: herbicidal activity, application before weed generation under submerged conditions (Table 16, symbol C); assay type: in vivo, oval-leafed pondweed (Monochoria vaginalis); conditions: 320 g/ha applied herbicide
How it was run: (§4)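 Emulsion formulation, water-diluted to set dose, was put onto the flooded surface (4 cm depth, alluvial soil) the same day weeds were sown and 2.5-leaf rice transplanted. After 3 weeks at 25-30 °C under glass, each species was rated 0 (≤5% kill) to 5 (≥90% kill).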

[11] = tested on: Japanese bulrush; assay: Test Example 1: herbicidal activity, application before weed generation under submerged conditions (Table 16, symbol B); assay type: in vivo, Japanese bulrush (Schoenoplectus juncoides); conditions: 320 g/ha applied herbicide
How it was run: as §4

[12] = tested on: windgrass; assay: Test Example 4: herbicidal effect by soil treatment (Table 19, symbol L); assay type: in vivo, windgrass (Apera spica-venti); conditions: amount of applied herbicide 320 g/ha
How it was run: as §2

[13] = tested on: late watergrass; assay: Test Example 1: herbicidal activity, application before weed generation under submerged conditions (Table 16, symbol A); assay type: in vivo, late watergrass (Echinochloa oryzicola); conditions: 320 g/ha applied herbicide
How it was run: as §4

[14] = tested on: barnyard grass; assay: Test Example 4: herbicidal effect by soil treatment (Table 19, symbol H); assay type: in vivo, barnyard grass (Echinochloa crus-galli); conditions: amount of applied herbicide 320 g/ha
How it was run: as §2

[15] = tested on: oval-leafed pondweed; assay: Test Example 2: herbicidal activity, application during weed generation under submerged conditions (Table 17, symbol C); assay type: in vivo, oval-leafed pondweed (Monochoria vaginalis); conditions: AAH 320 g/ha; application during weed generation, submerged conditions
How it was run: as §1

[16] = tested on: Italian ryegrass; assay: Test Example 4: herbicidal effect by soil treatment (Table 19, symbol K); assay type: in vivo, Italian ryegrass (Lolium multiflorum); conditions: amount of applied herbicide 320 g/ha
How it was run: as §2

[17] = tested on: barnyard grass; assay: Test Example 3: herbicidal effect by foliage application, Wagner pot (Table 18, symbol H); assay type: in vivo, barnyard grass (Echinochloa crus-galli); conditions: amount of applied herbicide 320 g/ha
How it was run: as §3

[18] = tested on: rice flat sedge; assay: Test Example 3: herbicidal effect by foliage application, Wagner pot (Table 18, symbol E); assay type: in vivo, rice flat sedge (Cyperus iria); conditions: amount of applied herbicide 320 g/ha
How it was run: as §3

[19] = tested on: green foxtail; assay: Test Example 4: herbicidal effect by soil treatment (Table 19, symbol G); assay type: in vivo, green foxtail (Setaria viridis); conditions: amount of applied herbicide 320 g/ha
How it was run: as §2

[20] = tested on: blackgrass; assay: Test Example 4: herbicidal effect by soil treatment (Table 19, symbol J); assay type: in vivo, blackgrass (Alopecurus myosuroides); conditions: amount of applied herbicide 320 g/ha
How it was run: as §2

[21] = tested on: redroot pigweed; assay: Test Example 4: herbicidal effect by soil treatment (Table 19, symbol N); assay type: in vivo, redroot pigweed (Amaranthus retroflexus); conditions: amount of applied herbicide 320 g/ha
How it was run: as §2

SMILES: CCCC(=O)Oc1c(C)nn(C)c(=O)c1-c1c(-c2ccc(Cl)cc2F)sc2ccc(F)cc12 [2-349]
- herbicidal effect rating, A: late watergrass [1]: 3 (Herbicidal rate of 40% or more and less than 70%)
- herbicidal effect rating, B: Japanese bulrush [2]: 3 (Herbicidal rate of 40% or more and less than 70%)
- herbicidal effect on P: chickweed [3]: 3 (Herbicidal rate of 40% or more and less than 70%)
- herbicidal effect on I: wild oat [4]: 0 (Herbicidal rate of 5% or less (almost no effect))
- herbicidal effect on R: persian speedwell [5]: 4 (Herbicidal rate of 70% or more and less than 90%)
- herbicidal effect on M: velvetleaf [6]: 0 (Herbicidal rate of 5% or less (almost no effect))
- herbicidal effect on D: Chinese sprangletop [7]: 5 (Herbicidal rate of 90% or more (almost completely withered))
- herbicidal effect on F: southern crabgrass [8]: 0 (Herbicidal rate of 5% or less (almost no effect))
- herbicidal effect on O: lambsquarters [9]: 0 (Herbicidal rate of 5% or less (almost no effect))
- Herbicidal effect on C: oval-leafed pondweed (grade 0-5) [10]: 0 (Herbicidal rate of 5% or less (almost no effect))
- Herbicidal effect on B: Japanese bulrush (grade 0-5) [11]: 0 (Herbicidal rate of 5% or less (almost no effect))
- herbicidal effect on L: windgrass [12]: 0 (Herbicidal rate of 5% or less (almost no effect))
- Herbicidal effect on A: late watergrass (grade 0-5) [13]: 3 (Herbicidal rate of 40% or more and less than 70%)
- herbicidal effect on H: barnyard grass [14]: 0 (Herbicidal rate of 5% or less (almost no effect))
- herbicidal effect rating, C: oval-leafed pondweed [15]: 3 (Herbicidal rate of 40% or more and less than 70%)
- herbicidal effect on K: Italian ryegrass [16]: 4 (Herbicidal rate of 70% or more and less than 90%)
- herbicidal effect on H: barnyard grass [17]: 5 (Herbicidal rate of 90% or more (almost completely withered))
- herbicidal effect on E: rice flat sedge [18]: 4 (Herbicidal rate of 70% or more and less than 90%)
- herbicidal effect on G: green foxtail [19]: 0 (Herbicidal rate of 5% or less (almost no effect))
- herbicidal effect on J: blackgrass [20]: 0 (Herbicidal rate of 5% or less (almost no effect))
- herbicidal effect on N: redroot pigweed [21]: 0 (Herbicidal rate of 5% or less (almost no effect))
